Results on 7 compounds are retold here after US3994882A, “Nitrofuran derivatives, process for the preparation thereof and compositions containing same as active ingredient” (Kabushiki Kaisha Ueno Seiyaku Oyo Kenkyujo, priority 1974, dated 1976).

The test system of data set [1] is Streptococcus hemolyticus, Staphylococcus aureus, Escherichia coli and salmonella species. Particulars: cited from earlier work.
For data set [2] the following is noted: in vivo; cited from earlier work.
Data set [3] has as its system Streptococcus hemolyticus A 089. Kind of data set: Curative action in infected mice (Table 4). It is filed as in vivo. Particulars: Streptococcus pyogenes, A089, 168 h, mice infected abdominally, oral in 5% gum arabic, observation one week. As to the method: (§1) Next, in Table 4 are shown the curative actions (ED50 mg/Kg body wt.) and acute toxicities (LD50 mg/kg body wt.) of the typical nitrofuran derivatives of the present invention when used with infected mice.
(§2) Note.- The numerical values in the table denote the amounts per unit body
(§3) weight of the nitrofuran derivatives required for cure when the experimen
(§4) was carried out using mice of body weight of about 20 grams and injecting
(§5) thereinto abdominally the microorganism-containing solutions in amounts o
(§6) 0.2 ml (the microorganism-containing solutions used being those in the
(§7) cases of test microorganisms 1, 3 and 4 in which the microorganism cultur
(§8) liquids were diluted 10^5, 5 and 10^2 times, respectively, and in
(§9) the case of test microorganism 2 that which was concentrated 2 times),
(§10) after which the nitrofuran derivatives suspended in 5% gum arabic were
(§11) forcedly administered orally followed by observation for one week.

For data set [4], the system named is Salmonella typhimium K-52. The experiment in a line: Curative action in infected mice (Table 4). Format: in vivo. Particulars: K52, 168 h, mice infected abdominally, oral in 5% gum arabic, observation one week. On the procedure:
as §1, §2, §3, §4, §5, §6, §7, §8, §9, §10, §11

The test system of data set [5] is Staphylococcus aureus 72r. Kind of data set: Curative action in infected mice (Table 4). Format: in vivo. Particulars: 168 h, mice infected abdominally, oral in 5% gum arabic, observation one week. On the procedure:
as §1, §2, §3, §4, §5, §6, §7, §8, §9, §10, §11

Another data set relates to Escherichia coli K-74. The experiment in a line: Curative action in infected mice (Table 4). It is filed as in vivo. To be noted: K74, 168 h, mice infected abdominally, oral in 5% gum arabic, observation one week. On the procedure: as §1, §2, §3, §4, §5, §6, §7, §8, §9, §10, §11
A short description of data set [6]: Acute toxicity in mice (Table 4). To be noted: mouse, in vivo, po. As to the method:
as §1

The next data set deals with infected mice. The experiment in a line: Curative action in infected mice. It is filed as in vivo. Particulars: oral. On the procedure:
as §2, §3, §4, §5, §6, §7, §8, §9, §10, §11

The test system of the next data set is microorganisms. Particulars: compound (A), background; cited from earlier work.
The next data set relates to Proteus vulgaris HX-19. Kind of data set: Minimum growth inhibiting concentration (Table 1). Format: cell-based. To be noted: HX19, TSBI, pH 7.2, 37° C., 48 hours. As to the method: (§12) For information, the minimum growth inhibiting concentration is a value
(§13) concerning microorganisms cultivated in TSBI the pH of which was adjusted
(§14) to 7.2, each bacteria being incubated at 37° C. for 48 hours.

In data set [7] the test system is Streptococcus hemolyticus A 089. Kind of data set: Minimum growth inhibiting concentration (Table 1). Format: cell-based. To be noted: Streptococcus pyogenes, A089, TSBI, pH 7.2, 37° C., 48 hours. On the procedure:
as §12, §13, §14

Data set [8] deals with Klebsiella pneumoniae ST-101. Kind of data set: Minimum growth inhibiting concentration (Table 1). Format: cell-based. To be noted: ST101, TSBI, pH 7.2, 37° C., 48 hours. As to the method:
as §12, §13, §14

Data set [9] deals with Pseudomonas aeruguinosa 347. The experiment in a line: Minimum growth inhibiting concentration (Table 1). It is filed as cell-based. Particulars: TSBI, pH 7.2, 37° C., 48 hours. As to the method: as §12, §13, §14
In data set [10] the test system is Salmonella pullorum chuyu 114. Kind of data set: Minimum growth inhibiting concentration (Table 1). It is filed as cell-based. Particulars: Salmonella enterica, TSBI, pH 7.2, 37° C., 48 hours. As to the method:
as §12, §13, §14

Data set [11] concerns Diplococcus pneumoniae DP-1. Kind of data set: Minimum growth inhibiting concentration (Table 1). To be noted: Streptococcus pneumoniae, DP1, TSBI, pH 7.2, 37° C., 48 hours. It is filed as cell-based. On the procedure:
as §12, §13, §14

In data set [12] the test system is Staphylococcus aureus 209P. Kind of data set: Minimum growth inhibiting concentration (Table 1). To be noted: TSBI, pH 7.2, 37° C., 48 hours. Format: cell-based. On the procedure: as §12, §13, §14
Data set [13] relates to Salmonella enteritidis 1891. The experiment in a line: Minimum growth inhibiting concentration (Table 1). Format: cell-based. To be noted: Salmonella enterica, TSBI, pH 7.2, 37° C., 48 hours. As to the method: as §12, §13, §14
Another data set concerns Bacillus Subtilis PCI219. Kind of data set: Minimum growth inhibiting concentration (Table 1). It is filed as cell-based. Particulars: TSBI, pH 7.2, 37° C., 48 hours. As to the method: as §12, §13, §14
The subject of a further data set is Escherichia coli O-55. The experiment in a line: Minimum growth inhibiting concentration (Table 1). It is filed as cell-based. To be noted: O55, TSBI, pH 7.2, 37° C., 48 hours. As to the method:
as §12, §13, §14

The structures appear in SMILES notation. ≈ marks a conversion by molar mass, not a printed value.

As to `NC(=O)c1ccc(C=Cc2ccc([N+](=O)[O-])o2)cc1` [Compound A, Para-[2-(5'-nitro-2'-furyl)-vinyl]-benzoylamine, reference compound], in data set [1], the “Antimicrobial activity in vitro (in words)” value was “extremely superior antimicrobial activity in vitro”. In addition, the “Concentration inhibiting the growth” value in data set [1] (in vitro, Streptococcus hemolyticus, Staphylococcus aureus, Escherichia coli and salmonella species) is given as 0.1-3 micrograms per milliliter. Besides, the Concentration in blood result in data set [2] was “can scarcely be noted”. The ED50 (in [3]; in data set [4]; in data set [5]; in the data set on Escherichia coli K-74) was more than 400 mg/kg throughout. Also, the LD50 in data set [6] is more than 400 mg/kg. For the same compound, in the data set with infected mice, the “Curative effect in infected mice (in words)” value was “no curative effects were noted”. For the same compound, the “In vivo antimicrobial activity” value in the data set with microorganisms is recorded as “not observed”.

Turning to `O=C(NCCO)c1cccc(C=Cc2ccc([N+](=O)[O-])o2)c1` [Example 2, 2-Meta-[2'-(5"-nitro-2"-furyl)-vinyl]-benzoylamino-ethanol], the MIC with Proteus vulgaris HX-19 was 6.25 µg/mL (≈ 20.7 µM); in data set [7], less than 0.19 µg/mL; in data set [8] it was 1.56 µg/mL (≈ 5.16 µM); in data set [9] it was 25 µg/mL (≈ 82.7 µM); in data set [10], 3.13 µg/mL (≈ 10.4 µM); in data set [11], less than 0.19 µg/mL. Moreover, the MIC is 0.78 µg/mL (≈ 2.58 µM) in data set [12], 0.78 µg/mL (≈ 2.58 µM) in data set [13], less than 0.19 µg/mL against Bacillus Subtilis PCI219 and 3.13 µg/mL (≈ 10.4 µM) against Escherichia coli O-55. Further, the ED50 in [3] is 34 mg/kg; in data set [4] it was 150 mg/kg; in data set [5], 37 mg/kg; with Escherichia coli K-74, 45 mg/kg. The compound also showed a 50% lethal dose (LD50) in data set [6] of 2000 mg/kg.

As to `O=C(NCCCO)c1ccc(C=Cc2ccc([N+](=O)[O-])o2)cc1` [Example 4, 3-Para-[2'-(5"-nitro-2"-furyl)-vinyl]-benzoylamino-1-propanol], the MIC is 6.25 µg/mL (≈ 19.8 µM) in the data set with Proteus vulgaris HX-19; less than 0.19 µg/mL in data set [7]; 3.13 µg/mL (≈ 9.9 µM) in [8]; more than 25 µg/mL in [9]; 6.25 µg/mL (≈ 19.8 µM) in data set [10]; 6.25 µg/mL (≈ 19.8 µM) in data set [11]. For the same compound, the MIC was 0.78 µg/mL (≈ 2.47 µM) in [12], 3.13 µg/mL (≈ 9.9 µM) in data set [13], less than 0.19 µg/mL in the data set on Bacillus Subtilis PCI219 and 3.13 µg/mL (≈ 9.9 µM) in the data set with Escherichia coli O-55. Also, the 50% effective dose (ED50) worked out at 24 mg/kg in data set [3], 125 mg/kg in [4] and 50 mg/kg in data set [5]. The same compound showed an LD50 in data set [6] of 1900 mg/kg.

Turning to `CC(O)CNC(=O)c1ccc(C=Cc2ccc([N+](=O)[O-])o2)cc1` (stereo not drawn) [Example 5, 3-Para[2'-(5"-nitro-2"-furyl)-vinyl]-benzoylamino-2-propanol], the minimal inhibitory concentration (MIC) in the data set on Proteus vulgaris HX-19 is 3.13 µg/mL (≈ 9.9 µM); in data set [7], 0.19 µg/mL (≈ 0.601 µM); in data set [8], 3.13 µg/mL (≈ 9.9 µM); in data set [9], more than 25 µg/mL; in data set [10], 6.25 µg/mL (≈ 19.8 µM); in data set [11], 0.78 µg/mL (≈ 2.47 µM). Moreover, the MIC in [12] is 0.78 µg/mL (≈ 2.47 µM); in data set [13], 1.56 µg/mL (≈ 4.93 µM); against Bacillus Subtilis PCI219, less than 0.19 µg/mL; in the data set with Escherichia coli O-55, 6.25 µg/mL (≈ 19.8 µM). The ED50 in [3] amounted to 19 mg/kg; in data set [4], 110 mg/kg; in [5] it was 37 mg/kg. In [6], this compound returned an LD50 of 1700 mg/kg.

Turning to `O=C(NCCOCCO)c1ccc(C=Cc2ccc([N+](=O)[O-])o2)cc1` [Example 11, 2-Para-[2'-(5"-nitro-2"-furyl)-vinyl]-benzoylaminoethoxy-2-ethanol], the MIC in the data set with Proteus vulgaris HX-19 is 6.25 µg/mL (≈ 18 µM); in [7], less than 0.19 µg/mL; in data set [8] it was 3.13 µg/mL (≈ 9.04 µM); in data set [9], 25 µg/mL (≈ 72.2 µM); in [10] it was 6.25 µg/mL (≈ 18 µM); in data set [11] it was 0.78 µg/mL (≈ 2.25 µM). In addition, the MIC was 1.56 µg/mL (≈ 4.5 µM) in [12], 1.56 µg/mL (≈ 4.5 µM) in [13], less than 0.19 µg/mL against Bacillus Subtilis PCI219 and 6.25 µg/mL (≈ 18 µM) with Escherichia coli O-55. The ED50 in data set [3] is 13 mg/kg; in data set [4], 100 mg/kg; in [5], 21 mg/kg; in the data set with Escherichia coli K-74, 29 mg/kg. The compound further registered an LD50 in data set [6] of 1850 mg/kg.

As for `NC(=O)CNC(=O)c1ccc(C=Cc2ccc([N+](=O)[O-])o2)cc1` [Example 16, Para-[2-(5'-nitro-2'-furyl)-vinyl]-N-benzoylglycine amide], the MIC against Proteus vulgaris HX-19 was 3.13 µg/mL (≈ 9.93 µM); in data set [7] it was less than 0.19 µg/mL; in data set [8], 3.13 µg/mL (≈ 9.93 µM); in [9], more than 25 µg/mL; in [10], 3.13 µg/mL (≈ 9.93 µM); in [11], 0.39 µg/mL (≈ 1.24 µM). The MIC in data set [12] was 0.78 µg/mL (≈ 2.47 µM); in [13] it was 0.78 µg/mL (≈ 2.47 µM); in the data set with Bacillus Subtilis PCI219 it was less than 0.19 µg/mL; against Escherichia coli O-55, 3.13 µg/mL (≈ 9.93 µM). Also, the ED50 in data set [3] turned out to be 34 mg/kg; in [4], 110 mg/kg; in data set [5], 30 mg/kg; with Escherichia coli K-74, 34 mg/kg. In addition, the LD50 in data set [6] amounted to 2000 mg/kg.

For the compound `NC(=O)C(CO)NC(=O)c1ccc(C=Cc2ccc([N+](=O)[O-])o2)cc1` (stereo not drawn) [Example 19, Para-[2-(5'-nitro-2'-furyl)-vinyl]-N-benzoylserine amide], the MIC was 6.25 µg/mL (≈ 18.1 µM) in the data set on Proteus vulgaris HX-19; less than 0.19 µg/mL in data set [7]; 6.25 µg/mL (≈ 18.1 µM) in [8]; 25 µg/mL (≈ 72.4 µM) in data set [9]; 6.25 µg/mL (≈ 18.1 µM) in data set [10]; 0.78 µg/mL (≈ 2.26 µM) in [11]. For the same compound, the MIC was 1.56 µg/mL (≈ 4.52 µM) in data set [12], 1.56 µg/mL (≈ 4.52 µM) in [13], less than 0.19 µg/mL against Bacillus Subtilis PCI219 and 12.5 µg/mL (≈ 36.2 µM) with Escherichia coli O-55. For the same compound, the median effective dose (ED50) in data set [3] was found to be 46 mg/kg; in data set [5] it was 65 mg/kg. This compound returned an LD50 in [6] of more than 2000 mg/kg.

One may read the ED50 as the dose at which the effect has come halfway, by size or by number of responders. For orientation: LD50 means the dose at which mortality reaches 50%. Broadly, the MIC is the lowest concentration that inhibits growth of the organism.
